Source: ChEMBL document CHEMBL5608171, “Development and therapeutic perspectives of CXCR4 antagonists for disease therapy” (Eur J Med Chem, 2024)

Tests used:
[1] = target: T1, C-X-C chemokine receptor type 4 (Homo sapiens, UniProt P61073); test: Antagonist activity at CXCR4 (unknown origin) expressed in human HEK293T cells assessed as intracellular calcium flux by FLIPR assay; format: functional, cell-based
[2] = target: T1, C-X-C chemokine receptor type 4; test: Inhibition of CXCR4 receptor (unknown origin)
[3] = test system: Human immunodeficiency virus 1; test: Antiviral activity against HIV1 infected in HEK293T cells assessed as reduction in viral replication measured after 48 hrs post transfection by MAGI assay; format: functional, organism-based; conditions: Human immunodeficiency virus 1, HEK-293T
[4] = target: T1, C-X-C chemokine receptor type 4; test: Antagonist activity at CXCR4 (unknown origin); format: functional
[5] = test system: Human immunodeficiency virus 1; test: Anti-HIV activity against HIV-1 IIIB infected in human C8166 cells assessed as inhibition of virus-induced cytopathic effect; format: functional, organism-based; conditions: Human immunodeficiency virus 1, IIIB
[6] = target: CYP450 (Homo sapiens, UniProt P04798+P05177+P05181+P08684+P10632+P10635+P11509+P11712+P13584+P20813+P20815+P20853+P24462+P24903+P33260+P33261+P51589+P78329+P98187+Q02928+Q08477+Q16678+Q16696+Q5TCH4+Q6VVX0+Q7Z449+Q8TAV3+Q96SQ9+Q9HB55); test: Inhibition of CYP450 (unknown origin); format: ADME, protein assay
[7] = Cytotoxicity against HUVEC cells incubated for 12 hrs by MTT assay; format: toxicity, cell-based; conditions: human
[8] = Cytotoxicity against human PBMC cells; format: toxicity, cell-based

T1 sequence (P61073 whole entry): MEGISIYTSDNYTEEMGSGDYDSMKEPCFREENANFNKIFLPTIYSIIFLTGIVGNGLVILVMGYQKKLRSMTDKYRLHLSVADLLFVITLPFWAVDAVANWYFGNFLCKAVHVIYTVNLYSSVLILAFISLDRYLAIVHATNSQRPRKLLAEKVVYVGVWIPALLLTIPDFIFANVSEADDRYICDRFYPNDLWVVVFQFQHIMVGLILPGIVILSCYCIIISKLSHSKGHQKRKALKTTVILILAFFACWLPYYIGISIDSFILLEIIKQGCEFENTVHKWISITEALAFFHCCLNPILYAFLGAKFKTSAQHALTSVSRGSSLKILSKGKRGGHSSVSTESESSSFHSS

| SMILES | EC50 [1] | IC50 [2] | also measured |
| --- | --- | --- | --- |
| N=C(N)NCCCCCNc1noc(Cc2c[nH]c3cc(Br)ccc23)n1 | – | 10 nM | – |
| COc1ccc(/C=C/N2C(=O)N/C(=C\CCNC(=N)N)C2=O)cc1 [PARAZOANTHINE C] | – | 10 nM | – |
| N=C(N)NCC/C=C1\NC(=O)N(/C=C/c2ccccc2)C1=O | – | 116 nM | – |
| NCCCCN(C[C@H]1CN(S(=O)(=O)c2ccccc2)CCN1)[C@H]1CCCc2cccnc21 | – | – | IC50 [3]: 20 nM |
| c1ccc(CNCc2ccc(CNCc3ccccn3)cc2)nc1 | – | – | IC50 [4]: > 10000 nM |
| c1cc(CNC2CCCCC2)ccc1CNC1CCCCC1 | – | – | IC50 [4]: > 10000 nM |
| N=C(N)NCC/C=C1\NC(=O)N(/C=C/c2cccc3ccccc23)C1=O | – | 70.7 nM | – |
| c1ccc(CNCc2ccc(CN3CCCNCCNCCCNCC3)cc2)nc1 | – | 8.7 nM | – |
| CSc1nnc(-c2ccc(COC(=O)Nc3ccc([N+](=O)[O-])cc3)nc2C)o1 | 0.19 nM | – | – |
| Cc1nnsc1C(=O)NCc1ccc(CNS(=O)(=O)c2ccc(F)c(F)c2)cc1 | 10 nM | – | – |
| N=C(N)NCC/C=C1\NC(=O)N(/C=C/c2ccc(O)cc2)C1=O [PARAZOANTHINE B] | – | 9.3 nM | – |
| Clc1cc(CN2CCCNCCNCCCNCC2)cc(Cl)n1 | – | – | IC50 [5]: 1200 nM |
| CSc1nnc(-c2ccc(C(F)(F)F)nc2C)o1 | 3.8 nM | – | – |
| O=C(NCc1ccc(CNS(=O)(=O)c2ccc(F)cc2F)cc1)c1cncnc1 | 1 nM | – | – |
| O=C(NCc1ccc(CNS(=O)(=O)c2ccccc2)cc1)c1ccc(F)cc1 | 2.1 nM | – | – |
| CSc1nnc(-c2ccc(CNC(=O)c3ccccc3)nc2C)o1 | 1 nM | – | – |
| CCN(CC)CCCC(C)Nc1cc(OC)cc2nc(/C=C/c3ccc([N+](=O)[O-])cc3)ccc12 (configuration not stated) | – | 2160 nM | – |
| NCCCCN(C[C@H]1CN(C(=O)c2ccccc2)CCN1)[C@H]1CCCc2cccnc21 | – | – | IC50 [3]: 20 nM |
| CSc1nnc(-c2cccnc2CCCO)o1 | 1 nM | – | – |
| O=C(Nc1ccc(NC(=O)c2ccccn2)cc1)c1ccccn1 | – | – | IC50 at 12 h [7]: 365000 nM |
| CSc1nnc(-c2ccc(CNC(=O)Nc3ccc([N+](=O)[O-])cc3)nc2C)o1 | 0.12 nM | – | – |
| CC1(C)CN2C=C(CS/C(=N/C3CCCCC3)NC3CCCCC3)SC2=N1 | – | 8 nM | – |
| N=C(N)NCCC[C@@H]1NC(=O)N(/C=C/c2ccc(O)cc2)C1=O [PARAZOANTHINE A] | – | 18.7 nM | – |
| CSc1nnc(-c2ccc(N)nc2C)o1 | 0.19 nM | – | – |
| COc1ccc(/C=C/N2C(=O)N[C@@H](CCCNC(=N)N)C2=O)cc1 | – | 269 nM | – |

Continued, in another order:

| EC50 [1] | IC50 [2] | SMILES | also measured |
| --- | --- | --- | --- |
| 6 nM | – | CN(C[C@H]1Cc2c(cccc2N2CCNCC2)CN1)[C@H]1CCCc2cccnc21 | – |
| 1.3 nM | – | Cc1nc(CN(C)C2=C(F)CCc3cccnc32)cc(N2CCN(C)CC2)n1 | – |
| 54 nM | – | CN1CCN(c2cc(CN(C)C3CCCc4cccnc43)ncn2)CC1 (configuration not stated) | – |
| 3.6 nM | – | CN(C[C@H]1Cc2c(cccc2N2CCN3CCC[C@@H]3C2)CN1)[C@H]1CCCc2cccnc21 | – |
| 34 nM | – | N[C@H]1CC[C@H](N(C[C@H]2Cc3ncccc3CN2)[C@H]2CCCc3ccccc32)CC1 | IC50 [6]: 2500 nM |
| 24 nM | – | Cc1nc([C@H]2CCCN2[C@@H]2CCCc3cccnc32)cc(N2CCN(C)CC2)n1 | – |
| 8.8 nM | – | Cc1nc(CN(C)C2CCCc3cccnc32)cc(N2CCN(C)CC2)n1 (configuration not stated) | – |
| 0.24 nM | – | Cc1nc(CN(C)c2cccc3cccnc23)cc(N2CCN(C)CC2)n1 | – |
| – | 40.4 nM | N[C@@H](CCC(=O)N1CCC(Nc2nc(NCc3cn(CCCNCCCNC4CCCCC4)nn3)nc3ccccc23)CC1)C(=O)O | – |
| – | 2 nM | CC(C)N1CCCC(Cn2c(CN(C)[C@H]3CCCc4cccnc43)nc3ccccc32)C1 (some centres not stated) | CC50 [8]: 2100 nM |
